In patent US10342796B2, “Acrylanilide derivative, preparation method, and applications thereof in pharmacy” (Ancureall Pharmaceutical (Shanghai) Co., Ltd., priority 2015, dated 2019):
Read-outs that look alike come from different tables or passages of the source.

Tests used:
Test in all cases: Growth inhibition GI50 in vitro (CCK8/MTT, 72 h)
H1975 (EGFR L858R/T790M) = assay type: cell-based, human; conditions: Homo sapiens, NCI-H1975
PC-9 (EGFR dE746-A750) = assay type: cell-based, human; conditions: Homo sapiens
[1] = test system: SW48 (EGFR G719S positive); assay type: cell-based; conditions: Homo sapiens, SW48; Table 15; 1000 nM to 0.03 nM serial dilution; read-out: GI50 SW48 (EGFR G719S)
Method: PC-9ER is an acquired Erlotinib resistance cell line of PC-9 cells developed by the investor. […] The four cell lines above were cultured with 1×RPMI1640 complete medium (supplement with 10% FBS). Human colon cancer cell line SW48 (EGFR G719S positive, ATCC). was cultured with L15 complete medium (10% FB S).
(§1) The suspension cells were collected by centrifugation. The supernatant was discard and the cell pellet was resuspended and counted. Different cell concentrations (5˜10×10^4 cells/mL) were prepared according to the growth cycle of each cell line and then seeded on a 96-well plate (Corning), 100 μL/well. The cells were incubated over night at 37° C., 5% CO2. The compounds were added to the cells on the second day with 2 wells in parallel. The final concentration of organic solvent shall not exceed 1%. The cells were continually incubated for 72 h, and then subjected to MTT assay.
(§2) The present compounds and the reference compounds were dissolved with DMSO (Sigma), respectively. […] The storage concentration of compounds was 10 mM and kept at −20° C. They were diluted by 2 times or 10 times with serial dilution before using.
(§3) Dojindo CCK8 reagent kit was used as MTT assay. […] FC meter was used as microplate reader.
(§4) Adherent cell culture medium was discard and immediately replaced with fresh prepared medium which contains 10% CCK8 reagent (100 μL/well). For the suspension cells, CCK8 was directly added to 10% of the final concentration. The cells were continually incubated for 1˜4 h. When the color of control wells turned to dark yellow, the absorption value was measured at OD450 nm. The cell growth rate was calculated according to the following formula: cell growth rate (%)=100*(T−T0)/(C−T0), T=optical density of drug treatment cell well—optical density of blank control well; T0=optical density of cell well before drug treatment—optical density of blank control well; C=optical density of cell well of solvent control group—optical density of blank control well. […] The experiment was independently repeated 1˜3 times, and subject to biological statistical analysis.
Each compound started at 1000 nM as an initial concentration and was diluted by […] with serial dilution to 0.03 nM.

N87 (HER2 Amp) = assay type: cell-based, human; conditions: Homo sapiens
Calu-3 (Her2 amp) = assay type: cell-based; conditions: Homo sapiens, Calu-3; Table 16; 1000 nM to 0.03 nM serial dilution; read-out: GI50 Calu3 (HER2 amp)
Method: (§5) Human lung adenocarcinoma cell line Calu-3 (ATCC) was cultured with 1×MEM complete medium (10% FBS, 1% double-antibiotics, 1% NEAA (Gibco), 2 mM glutamine and 1 mM of sodium pyruvate). Human breast cancer cell line SK-BR-3 was cultured with McCOY'S5A complete medium (10% FBS). Human colon cancer cell line SNU1040 (HER2 V777M positive) (ATCC) and human bronchoalveolar adenocarcinoma cell line NCI-H1781 (expressing HER2 exon 20 G776VC mutation) (ATCC) were cultured with 1×RPMI1640 complete medium (10% FBS), respectively.
as §1, §2, §3, §4

[2] = test system: NCI-H1781 (HER2 exon 20 G776VC mutation); assay type: cell-based; conditions: Homo sapiens, NCI-H1781; Table 16; 1000 nM to 0.03 nM serial dilution; read-out: GI50 H1781 (HER2 G776VC)
Method: as §5
as §1, with “Adherent cells were digested with 0.25% pancreatin-EDTA (Gibco). The suspension” for “The suspension”
as §2, §3
(§6) Adherent cell culture medium was discard and immediately replaced with fresh prepared medium which contains 10% CCK8 reagent (100 μL/well). For the suspension cells, CCK8 was directly added to 10% of the final concentration. The cells were continually incubated for 1˜4 h. When the color of control wells turned to dark yellow, the absorption value was measured at OD450 nm. The cell growth rate was calculated according to the following formula: cell growth rate (%)=100*(T−T0)/(C−T0), T=optical density of drug treatment cell well—optical density of blank control well; T0=optical density of cell well before drug treatment—optical density of blank control well; C=optical density of cell well of solvent control group—optical density of blank control well. The concentration value of 50% inhibition of cell growth (GI50) was calculated. The experiment was independently repeated 1˜3 times, and subject to biological statistical analysis.
(§7) Furthermore, the present compounds (99, 136, 205, 211, 212, 213, 216, 229, 230, 231, 232, 233 and 236) were selected to carry out growth inhibition test for HER2/ERBB2 gene amplified or high expressed or mutant tumor cells. Afatinib and AZD9291 were used for references as second- and third-generation inhibitors of EGFR.
(§8) Each compound started at 1000 nM as an initial concentration and was diluted by 2 times with serial dilution to 0.03 nM. The GI50 value of each compound was calculated according to Test Example 1.3.

[3] = test system: SNU1040 (HER2 V777M positive); assay type: cell-based; conditions: Homo sapiens; Table 16; 1000 nM to 0.03 nM serial dilution; read-out: GI50 SNU-1040 (HER2 V777M)
Method: as §5
as §1, with “Adherent cells were digested with 0.25% pancreatin-EDTA (Gibco). The suspension” for “The suspension”
as §2, §3, §6, §7, §8

H292 (EGFR WT) = assay type: cell-based; conditions: Homo sapiens, NCI-H292; Table 15; 1000 nM to 0.03 nM serial dilution; read-out: GI50 H292 (EGFR WT)
Text: EGFR wild type cell lines: human epidermal cancer cell line A431 (EGFR WT, amplification and high expression, from Shanghai Cell Bank of Chinese Academy of Sciences and ATCC), NSCLC cell lines NCI-H460 (EGFR WT, Kras G61H and PI3KCA E545K mutants, ATCC) and NCI-H1299 (EGFR WT, ATCC), melanoma cell line A375 (EGFR WT and BRAF V600E mutant, from Shanghai Cell Bank of Chinese Academy of Sciences, ATCC), human lung cancer cell line NCI-H292 (EGFR WT, from human lung mucoepidermoid carcinoma/lymphatic metastasis, purchased from Shanghai Cell Bank of Chinese Academy of Sciences) were cultured with 1×RPMI1640 complete medium which was supplement with 10% FBS. NSCLC cell line A549 (EGFR WT and Kras G12S mutant, from Shanghai Cell Bank of Chinese Academy of Sciences) was cultured with 1×Ham'S F12K complete medium which was supplement with 10% FBS, 1% double-antibiotics and 2 mM glutamine.
as §1, §2, §3, §4

A549 (EGFR WT) = assay type: cell-based, human; conditions: Homo sapiens, A549

Compound `C=CC(=O)Nc1cc(Nc2cc(Nc3cc(C(F)(F)F)ccc3OC)ncn2)c(OC)cc1N(C)CCN(C)C` [Compound 233, N-(5-(6-(2-methoxyl-5-trifluoromethyl-phenylamino)-pyrimidin-4-yl-amino)-2-((2-dimethylamino-ethyl)-methyl-amino)-4-methoxyl-phenyl)-acrylamide] has a GI50 (H1975 (EGFR L858R/T790M); Table 13, 72 h, read-out: Range of GI50 H1975 (EGFR L858R/T790M)) of 10 to 100 nM, a GI50 (H1975 (EGFR L858R/T790M); Table 15, 1000 nM to 0.03 nM serial dilution, read-out: GI50 H1975 (EGFR L858R/T790M)) of 19.2 nM and a GI50 (PC-9 (EGFR dE746-A750); Table 13, 72 h, read-out: Range of GI50 PC-9 (EGFR dE746-A750)) of under 10 nM. For the same compound, the GI50 (PC-9 (EGFR dE746-A750); Table 15, 1000 nM to 0.03 nM serial dilution, read-out: GI50 PC-9 (EGFR dE746-A750)) was 0.49 nM, the GI50 [1] was 4.19 nM and the GI50 (N87 (HER2 Amp); Table 13, 72 h, read-out: Range of GI50 N87 (HER2 Amp)) was under 10 nM. The GI50 (N87 (HER2 Amp); Table 16, 1000 nM to 0.03 nM serial dilution, read-out: GI50 N87 (HER2 amp)) was 0.95 nM, the GI50 (Calu-3 (Her2 amp)) was 0.98 nM and the GI50 [2] was 0.87 nM. For the same compound, the GI50 [3] was 7.21 nM, the GI50 (H292 (EGFR WT)) was over 1000 nM and the GI50 (A549 (EGFR WT); Table 13, 72 h, read-out: Range of GI50 A549 (EGFR WT)) was over 1000 nM. It also gave a GI50 (A549 (EGFR WT); Table 15, 1000 nM to 0.03 nM serial dilution, read-out: GI50 A549 (EGFR WT)) of over 1000 nM.
